Patent US20100048529A1, “New 2-Azetidinone Derivatives Useful In The Treatment Of Hyperlipidaemic Conditions” (ASTRAZENECA AB, priority 2005, published 2010)

Test system: 14C-cholesterol absorption
Conditions: 0.2 μmol/kg by gavage, C57BL/6 female mice, procedure A
Method: In Vivo Testing of Cholesterol Absorption Inhibitors (A)
C57BL/6 female mice were maintained on regular chow diet and housed in individual cages to collect faeces. Mice were fasted for 3 hours and then gavaged with vehicle or compound. Half an hour later the mice were gavaged with radiolabelled cholesterol. Six hours after the ^14C-cholesterol gavage blood samples were taken via the tail and plasma prepared to determine how much cholesterol were absorbed. 24 hours after the gavage of ^14C-cholesterol the mice were bled and plasma were prepared for analysis. Faeces were collected for 24 hours to assess absorption efficiency.

CC(C)(c1ccccc1)[C@@H](NC(=O)CNC(=O)COc1ccc([C@@H]2[C@@H](SCC(O)c3ccc4c(c3)CCO4)C(=O)N2c2ccc(F)cc2)cc1)C(=O)NCC(=O)O (stereo partly drawn) [Example 1, N-({4-[(2R,3R)-3-{[2-(2,3-dihydro-1-benzofuran-5-yl)-2-hydroxyethyl]thio}-1-(4-fluorophenyl)-4-oxoazetidin-2-yl]phenoxy}acetyl)glycyl-b,b-dimethyl-D-phenylalanylglycine]
inhibition of 14C-cholesterol absorption: 36%
